Results: patent US20050245540A1, “New methods” (FUJISAWA PHARMACEUTICAL CO., LTD., priority 2003, published 2005)
Counter-ions that a name gives are not always drawn.

System: calvaria from 5-day-old ICR mice
Test: Assay using mouse calvarial organ culture (calvaria bone formation assay)
Format: cell-based
Conditions: test compound 1.0 × 10^−5 M added in combination with TGF-beta1; new bone area by histomorphometry after 1 week culture
Experimental: Assay using Mouse Calvarial Organ Culture
Calvaria bone formation assay was essentially performed as described by Bonewald et al. (Endocrinology 139:3178, 1998). The calvaria from 5-day-old ICR mice were excised and cut in half along the sagittal suture. Each half of the calvaria was placed on a stainless steel grid in a 12-well tissue culture dish. Each well contained BGJ media (Sigma) supplemented with 0.1% bovine serum albumine, to which the test compound was added in combination with TGF-beta1. The media was changed 24 and 96 hrs. Calvaria were maintained in humidified air (5% CO2) at 37° C. for 1 week. The calvaria were then fixed overnight in formalin, decalcified in EDTA, and were then embedded in paraffin wax. Calvaria sections were stained with hematoxylin and eosin. Histomorphometric analysis was performed using the Image-pro Plus (Trade mark, Media Cybernetics). The sum of the new bone area was determined. Rate of increase was calculated in the following; [formula] • Calvaria area is calculated using Histomorphometric analysis. • Ats: Score of area in case of addition of test compound and TGF beta1 • Atg: Score of area in case of addition of TGF beta1 • Ac: Score of area in case of no addition (Control)

First: Cc1ccc(Cn2cc(C3CCNCC3)c3ccccc32)cc1C [9-(5)]
Second: COC(=O)c1cccc(Cn2cc(C3CCNCC3)c3ccccc32)c1 [9-(18)]
The Rate of increase of the first is higher: 180% for the first, 158% for the second.

Compared with `COc1ccc(Cn2cc(C3CCNCC3)c3ccc(C#N)cc32)cc1Cl.Cl` [49-(6), 1-(3-Chloro-4-methoxybenzyl)-6-cyano-3-(4-piperidinyl)-1H-indole hydrochloride], `COc1ccc(Cn2cc(C3CCN(C(=O)OC(C)(C)C)CC3)c3ccc(C#N)cc32)cc1Cl` [46-(4)] is higher in Rate of increase: 112% for the first, 203% for the second.

Going from `CC(C)(C)OC(=O)NCCCCCCCN1CCC(c2c[nH]c3ccc(O)cc23)CC1` [40-(3), 3-[1-(7-tert-butoxycarbonylaminoheptyl)-4-piperidinyl]-5-hydroxy-1H-indole] to `CS(=O)(=O)c1ccc(Cn2cc(C3CCNCC3)c3ccccc32)cc1` [Example 7, 1-[4-(methylsulfonyl)benzyl]-3-(4-piperidinyl)-1H-indole hydrochloride], the Rate of increase rises from 140% to 206%.

System: not given
Test: not given
Conditions: not given

Compared with `CC(C)(C)OC(=O)N1CCC(c2cn(S(C)(=O)=O)c3ccccc23)CC1` [Example 4, tert-butyl 4-[1-(methylsulfonyl)-1H-indol-3-yl]-1-piperidinecarboxylate], `CC(C)(C)OC(=O)N1CCC(c2c[nH]c3ccccc23)CC1` [Example 1, tert-butyl 4-(1H-indol-3-yl)-1-piperidinecarboxylate] is higher in melting point: 136 to 137 °C for the first, 159 to 160 °C for the second.
